The source of these data is patent US20250122171A1, “Substituted Amine Compounds, Compositions and Methods of Use” (Deep Apple Therapeutics, Inc., priority 2023, published 2025).

This experiment has as its target T1, human MRGPRX2 (Homo sapiens, UniProt Q96LB1).
T1 construct: expressed in transfected cells; host or cells: FlpIn TRex HEK293 (TRex-MRGPRX2-HEK), doxycycline-induced
T1 sequence (Q96LB1 1-330): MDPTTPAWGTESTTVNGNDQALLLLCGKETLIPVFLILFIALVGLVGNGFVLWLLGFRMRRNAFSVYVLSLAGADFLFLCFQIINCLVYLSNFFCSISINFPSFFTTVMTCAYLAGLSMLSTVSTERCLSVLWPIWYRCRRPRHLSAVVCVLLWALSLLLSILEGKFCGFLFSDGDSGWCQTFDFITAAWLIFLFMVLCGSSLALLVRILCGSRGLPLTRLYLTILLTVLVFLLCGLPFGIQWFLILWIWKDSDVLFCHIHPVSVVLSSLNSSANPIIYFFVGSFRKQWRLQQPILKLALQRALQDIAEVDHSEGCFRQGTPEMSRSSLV
The experiment in a line: MRGPRX2 Activity Assay (IP-1 HTRF, antagonist mode). In kind it is cell-based. Conditions: FlpIn TRex-MRGPRX2-HEK293 cells; versus 1 μM Cortistatin-14 agonist; 30 minutes preincubation. The protocol:
FlpIn TRex-MRGPRX2-HEK293 cells (herein TRex-MRPGRX2-HEK) stably transfected to express human MRGPRX2 were maintained at 37° C. with 5% CO2 and grown in DMEM supplemented with 10% FBS, 1% L-Glutamate, 1% penicillin/streptomycin, 100 ug/mL Hygromycin B, and 15 ug/mL Blasticidin.
GOI (MRGPRX2) expression was induced with 100 ng/mL of Doxycycline 18-24 hours prior to experiment, in flask. On the day of experiment, cells were lifted with TripLE Express and seeded in 384-well white walled opaque bottomed, assay plates, at 8,000 cells per well in 5 uL freshly made assay buffer (HBSS, 20 mM HEPES, 0.1% BSA and 10 mM LiCl). Compounds solubilized in 100% DMSO at 30 mM were serially diluted (1:4) first in 100% DMSO, and an intermediate plate of assay buffer was used to establish a final top concentration of 30 uM (in assay plate). Final DMSO concentration was kept constant at 1% across assay plates. […], at 30 mM stock concentration was solubilized in HBSS+0.1% BSA, stored at −20° C. in 5 μL aliquots and discarded after one freeze-thaw cycle. […].
Antagonist equilibrium was established with 30 minutes preincubation, followed by no wash, direct addition, and stimulation of agonist for 1 hour at 37° C./5% CO2. IP-1 standards and HTRF detection reagents were added according to the IP-one Gq kit protocol purchased from CisBio (part number 62IPAPEJ). The plate was read on an EnVision XCite plate reader. The HTRF ratio was then calculated from raw data (channel1/channel2×10,000) and analyzed using either GraphPad Prism or a custom Python script to calculate IC50 using Log[Antagonist] vs. response (4 parameter) nonlinear regression.
Take `C[C@@H](C(=O)Nc1cn(Cc2cc(F)cc(F)c2)cn1)N1CCC(F)(F)[C@H](c2ccc(=O)n(C)c2)C1` (single isomer, unassigned) [Compound 69]: the IC50 was greater than 30000 nM.
As for `C[C@@H](C(=O)Nc1cn(Cc2cccc(Cl)c2Cl)cn1)N1CCC(F)(F)[C@@H](c2cc[n+]([O-])cc2)C1` [Compound 66, 4-((S)-1-((S)-1-((1-(2,3-dichlorobenzyl)-1H-imidazol-4-yl)amino)-1-oxopropan-2-yl)-4,4-difluoropiperidin-3-yl)pyridine 1-oxide], the figure is 71 nM.
For `C[C@@H](C(=O)Nc1cn(Cc2ccc(Cl)c(F)c2)cn1)N1CCC(F)(F)[C@@H](c2cc[n+]([O-])cc2)C1` [Compound 47, 4-((S)-1-((S)-1-((1-(4-chloro-3-fluorobenzyl)-1H-imidazol-4-yl)amino)-1-oxopropan-2-yl)-4,4-difluoropiperidin-3-yl)pyridine 1-oxide] the value was 775 nM; for `C[C@@H](C(=O)Nc1cn2c(n1)CC[C@@H]2c1cc(F)cc(F)c1)N1CCC(F)(F)[C@H](c2cc[n+]([O-])c(CN3CCC(F)(F)CC3)c2)C1` (single isomer, unassigned) [Compound 535], 31 nM; for `Cc1nc(NC(=O)[C@H](C)N2CCOCC2)cn1Cc1cc(F)cc(F)c1` (single isomer, unassigned) [Compound 23], 700 nM.
For `C[C@@H](C(=O)Nc1cn2c(n1)CC[C@@H]2c1cc(F)cc(F)c1)N1CCOCC1` (single isomer, unassigned) [Compound 511] the value was greater than 30000 nM.
Compound `C[C@H](C(=O)Nc1cn([C@@H](C)c2cc(F)cc(F)c2)cn1)N1CCC(F)(F)[C@@H](c2cc[n+]([O-])cc2)C1` (single isomer, unassigned) [Compound 13] showed an IC50 of 233 nM.
Consider `C[C@H](C(=O)Nc1cn(Cc2cc(F)cc(F)c2)c(Cl)n1)N1CCC(F)(F)[C@@H](c2cc[n+]([O-])cc2)C1` (single isomer, unassigned) [Compound 81], for which the IC50 was greater than 30000 nM.
In turn, `C[C@@H](C(=O)Nc1cn2c(n1)CC[C@@H]2c1cc(F)cc(F)c1)N1CCC(F)(F)[C@H](c2ccc(=O)n(C)c2)C1` (single isomer, unassigned) [Compound 533] gave an IC50 of 18 nM.
For `C[C@@H](C(=O)Nc1cn(Cc2cc(F)cc(F)c2)cn1)N1CCC(F)(F)[C@@H](c2cc[n+]([O-])cc2)C1` (single isomer, unassigned) [Compound 6] the value was 1780 nM; for `C[C@@H](C(=O)Nc1cn(Cc2cc(F)c(Cl)cc2F)cn1)N1CCC(F)(F)[C@@H](c2cc[n+]([O-])cc2)C1` [Compound 45, 4-((S)-1-((S)-1-((1-(4-chloro-2,5-difluorobenzyl)-1H-imidazol-4-yl)amino)-1-oxopropan-2-yl)-4,4-difluoropiperidin-3-yl)pyridine 1-oxide], 885 nM; for `C[C@@H](C(=O)Nc1cn2c(n1)CC[C@H]2c1cc(F)cc(F)c1)N1CCC(F)(F)[C@@H](c2cc[n+]([O-])cc2)C1` (single isomer, unassigned) [Compound 487], 13800 nM.
In the case of `C[C@@H](C(=O)Nc1cn(-c2cc(F)cc(F)c2)cn1)N1CCC(F)(F)[C@@H](c2cc[n+]([O-])cc2)C1` [Compound 75, 4-((S)-1-((S)-1-((1-(3,5-difluorophenyl)-1H-imidazol-4-yl)amino)-1-oxopropan-2-yl)-4,4-difluoropiperidin-3-yl)pyridine 1-oxide], the IC50 was 513 nM.
In the case of `C[C@@H](C(=O)Nc1cn(Cc2cc(F)cc(F)c2)c(CF)n1)N1CCC(F)(F)[C@@H](c2cc[n+]([O-])cc2)C1` (single isomer, unassigned) [Compound 60], the half-inhibitory concentration (IC50) is greater than 30000 nM.
The compound `C[C@@H](C(=O)Nc1cn(Cc2cc(F)ccc2C(F)(F)F)cn1)N1CCC(F)(F)[C@@H](c2cc[n+]([O-])cc2)C1` [Compound 62, 4-((S)-4,4-difluoro-1-((S)-1-((1-(5-fluoro-2-(trifluoromethyl)benzyl)-1H-imidazol-4-yl)amino)-1-oxopropan-2-yl)piperidin-3-yl)pyridine 1-oxide] yielded a concentration for half-maximal inhibition (IC50) of 267 nM.
Compound `C[C@@H](C(=O)Nc1cn2c(n1)CC[C@@H]2c1cc(F)cc(F)c1)N1CCC(F)(F)[C@](C)(c2cc[n+]([O-])cc2)C1` (single isomer, unassigned) [Compound 520] had an IC50 of 129 nM.
As for `C[C@@H](C(=O)Nc1cn2c(n1)[C@@H](O)C[C@H]2c1cc(F)cc(F)c1)N1CCC(F)(F)[C@@H](c2ccc(=O)[nH]c2)C1` (single isomer, unassigned) [Compound 517], the IC50 was greater than 30000 nM.
For `C[C@@H](C(=O)Nc1cn(Cc2ccccc2C(F)(F)F)cn1)N1CCC(F)(F)[C@@H](c2cc[n+]([O-])cc2)C1` [Compound 41, 4-((S)-4,4-difluoro-1-((S)-1-oxo-1-((1-(2-(trifluoromethyl)benzyl)-1H-imidazol-4-yl)amino)propan-2-yl)piperidin-3-yl)pyridine 1-oxide] the value was 269 nM; for `Cc1nc(NC(=O)[C@H](C)N2CCC(F)(F)[C@@H](c3cc[n+]([O-])cc3)C2)cn1Cc1cc(F)cc(C#N)c1` (single isomer, unassigned) [Compound 17], 125 nM; for `C[C@H](C(=O)Nc1cn(Cc2cc(F)cc(F)c2)cn1)N1CCC(F)(F)[C@H](c2ccc(=O)n(C)c2)C1` (single isomer, unassigned) [Compound 70], greater than 30000 nM.
`C[C@@H](C(=O)Nc1cn(Cc2ccc(F)cc2F)cn1)N1CCC(F)(F)[C@H](c2cc[n+]([O-])cc2)C1` (single isomer, unassigned) [Compound 3] gave an IC50 greater than 10000 nM.
As for `C[C@@H](C(=O)Nc1cn(Cc2cc(F)cc(F)c2)c(C(F)F)n1)N1CCC(F)(F)[C@H](c2c[nH]c(=O)c(CO)c2)C1` (single isomer, unassigned) [Compound 491], the figure is 1640 nM.
As for `C[C@@H](C(=O)Nc1cn2c(n1)CC[C@@H]2c1cc(F)cc(F)c1)N1CCC(F)(F)[C@@H](c2c[nH]c(=O)c(CO)c2)C1` (single isomer, unassigned) [Compound 523], the figure is greater than 30000 nM.
For `C[C@@H](C(=O)Nc1cn(Cc2cc(F)cc(F)c2)cn1)N1CCC(F)(F)[C@@H](c2ccc(=O)n(C)c2)C1` (single isomer, unassigned) [Compound 67] the value was 4330 nM.
For `C[C@@H](C(=O)Nc1cc2n(n1)CC[C@@H]2c1cc(F)cc(F)c1)N1CCC(F)(F)[C@@H](c2cc[n+]([O-])cc2)C1` (single isomer, unassigned) [Compound 549], the IC50 stood at 439 nM.
As for `C[C@@H](C(=O)Nc1cn(Cc2ccc(F)cc2Cl)cn1)N1CCC(F)(F)[C@@H](c2cc[n+]([O-])cc2)C1` [Compound 48, 4-((S)-1-((S)-1-((1-(2-chloro-4-fluorobenzyl)-1H-imidazol-4-yl)amino)-1-oxopropan-2-yl)-4,4-difluoropiperidin-3-yl)pyridine 1-oxide], the figure is 214 nM; as for `C[C@@H](C(=O)Nc1cn(Cc2ccc(F)c(F)c2)cn1)N1CCC(F)(F)[C@@H](c2cc[n+]([O-])cc2)C1` [Compound 46, 4-((S)-1-((S)-1-((1-(3,4-difluorobenzyl)-1H-imidazol-4-yl)amino)-1-oxopropan-2-yl)-4,4-difluoropiperidin-3-yl)pyridine 1-oxide], 210 nM; as for “(R)-2-((S)-4,4-difluoro-3-(6-oxo-1,6-dihydropyridin-3-yl)piperidin-1-yl)-N-(1-(3,5-difluorobenzyl)-1H-imidazol-4-yl)propanamide [Compound 79]”, 18100 nM.
As for `C[C@@H](C(=O)Nc1cn(Cc2cc(F)cc(F)c2)c(C(F)F)n1)N1CCC(F)(F)CC1` [Compound 492, (S)—N-(1-(3,5-difluorobenzyl)-2-(difluoromethyl)-1H-imidazol-4-yl)-2-(4,4-difluoropiperidin-1-yl)propanamide], the figure is 35 nM; as for `C[C@@H](C(=O)Nc1cn(Cc2cccc(F)c2F)cn1)N1CCC(F)(F)[C@@H](c2cc[n+]([O-])cc2)C1` [Compound 49, 4-((S)-1-((S)-1-((1-(2,3-difluorobenzyl)-1H-imidazol-4-yl)amino)-1-oxopropan-2-yl)-4,4-difluoropiperidin-3-yl)pyridine 1-oxide], 53 nM.
As for `C[C@H](C(=O)Nc1cn2c(n1)CC[C@H]2c1cc(F)cc(F)c1)N1CCOCC1` (single isomer, unassigned) [Compound 513], the figure is greater than 30000 nM.
